According to US7507749B2, “Antitumor agents” (priority 2001, dated 2009):

Legend:
[1] = test system: mammary adenocarcinoma-16/C; assay: Test F: R-enantiomers of 22b and 22c against early staged mammary adenocarcinoma-16/C; assay type: in vivo, C3H female mice
Experimental: C3H female mice were obtained from N.C.I. (D.O.B. was […]; D.O.A. was Jan. 27, 2001). The mice weighed an average of 19.2 gm. Mice were implanted SC with mammary adenocarcinoma-16/C passage-170, a fast growing, highly invasive, highly metastatic tumor (D.O.T. was Mar. 8, 2001; Td was 1.2 days).
The R-enantiomers of both Compound 22c and Compound 22b were each suspended in 3% ethanol, 1% POE-80, 0.5% sodium bicarbonate (by volume) to effect solution, P.B.S. was then added and the pH adjusted to 7 with HCl. Adriamycin (ADRIA; lot number 20338c) was suspended in dH2O to effect solution and the pH was adjusted to 6.0. Mice were administered 0.2 ml per IV injection.

[2] = test system: mammary adenocarcinoma-17/Adr; assay: Test E: R-enantiomer of compound 22b and compound 22a against early stage mammary adenocarcinoma-17/Adr; assay type: in vivo
Experimental: Then, P.B.S. was added and the pH adjusted to 7 with HCl. A volume of 0.2 ml per injection was administered to animals intravenously. […] Then, P.B.S. was added and the pH was adjusted to 7 with HCl. A volume of 0.2 ml per injection was administered to animals intravenously.

[3] = test system: colon carcinoma 26; conditions: Cg 3; IV 50 mg/kg/inj days 6,8,10,13,15; total 250 mg/kg
Experimental: In this trial the R-enantiomers of XK-469, compound 22c, and compound 22b were compared against advanced staged colon carcinoma 26 in female Balb/c mice. […] Cage #2 was 22b at 400 mg/kg and Cage #4 was 22c at 400 mg/kg.
The XK469-R, 22b, and 22c compound doses were all prepared the same, using 3% ethanol, 1% POE-80, and 0.5% sodium bicarbonate. The injection volume was 0.2 mu/mouse IV. […] The mice were Balb/c female mice: DOB Feb. 12, 2001; DOA Mar. 27, 2001; DOT Sep. 8, 2001, with an average body weight of 24.7 grams at the start of Rx administration. The tumor was Colon Carcinoma-26 passage 141; date of implant Sep. 8, 2001, and implanted at 30 to 60 mg fragments bilaterally SC. All tumors were 63 to 171 mg on day 6, the day of first Rx.

[4] = Cage 5, IV 50 mg/kg/inj qd 1-5, total 250 mg/kg
[5] = Cage 5, IV 50 mg/kg/inj qd 1-5, total 250 mg/kg, listed as R-enantiomer of compound 22b
[6] = Cage 6, IV 50 mg/kg/inj days 1,3,5,7, total 200 mg/kg
[7] = Cage 7, IV 30 mg/kg/inj days 1,3,5,7, total 120 mg/kg
[8] = Cage 6, IV 83 mg/kg/inj qd 1-4, total 332 mg/kg
[9] = Cage 7, IV 55 mg/kg/inj qd 1-4, total 220 mg/kg
[10] = Cage 7, IV 55 mg/kg/inj qd 1-4, total 220 mg/kg, listed as R-enantiomer of compound 22b
[11] = Cage 8 (one mouse), IV single bolus 124.5 mg/kg day 1

C[C@@H](Oc1ccc(Oc2ccc3ccc(Cl)cc3n2)cc1)C(=O)O [Compound R-22b, (R) 2-[4-(7-chloroquinolin-2-yloxy)phenoxy]propanoic acid]
% T/C mass [1, 4]: 0% | Activity Rating [1, 4]: +++ (2.0-2.8) | Drug Deaths [1, 4]: 0/5 | Growth Delay [1, 4]: 7.0 days | Log Kill [1, 4]: 2.1 | Median Tumor Mass on Day 10 (Range) [1, 4]: 0 mg | Median time for tumors to 1000 mg (range) [1, 4]: 16.5 (13.5-18) days | Tumor Free day-155 [1, 4]: 0/5 | % T/C mass [1, 5]: 0% | Drug Deaths [1, 5]: no deaths | % T/C mass [1, 6]: 5% | Activity Rating [1, 6]: ++ (1.3-1.9) | Drug Deaths [1, 6]: 0/5 | Growth Delay [1, 6]: 5.8 days | Log Kill [1, 6]: 1.7 | Median Tumor Mass on Day 10 (Range) [1, 6]: 75 mg | Median time for tumors to 1000 mg (range) [1, 6]: 15.3 (14-17) days | Tumor Free day-155 [1, 6]: 0/5 | % T/C mass ([1]; Cage 6, IV 50 mg/kg/inj days 1,3,5,7, total 200 mg/kg, listed as R-enantiomer of compound 22b): 5% | % T/C mass [1, 7]: 32% | Activity Rating [1, 7]: + (0.7-1.2) | Drug Deaths [1, 7]: 0/5 | Growth Delay [1, 7]: 2.5 days | Log Kill [1, 7]: 0.8 | Median Tumor Mass on Day 10 (Range) [1, 7]: 486 mg | Median time for tumors to 1000 mg (range) [1, 7]: 12 (11.5-14) days | Tumor Free day-155 [1, 7]: 0/5 | % T/C mass ([1]; Cage 7, IV 30 mg/kg/inj days 1,3,5,7, total 120 mg/kg, listed as R-enantiomer of compound 22b): 32% | Neuromuscular toxicity ([1]; mouse, in vivo, iv): completely devoid of neuromuscular toxicity | Neuromuscular toxicity ([2]; Cage 6, IV 83 mg/kg/inj qd 1-4): neuromuscular toxicity was not produced | % Body Wt Loss at Nadir [2, 8]: −17.5% | % T/C mass [2, 8]: toxic | Activity Rating [2, 8]: toxic | Cause of death [2, 8]: GI-epithelial damage | Day of Nadir [2, 8]: 6 days | Drug Deaths [2, 8]: 5/5 | Median Tumor Mass on day 9 (Range) [2, 8]: toxic | Tumor Free day-23 [2, 8]: 0/5 | Drug Deaths ([2]; Cage 6, IV 83 mg/kg/inj qd 1-4, total 332 mg/kg, listed as R-enantiomer of compound 22b): killing all of the 5 mice | % Body Wt Loss at Nadir [2, 9]: −23.4% | % T/C mass [2, 9]: 0% | Activity Rating [2, 9]: ++++ (>2.8) | Cause of death [2, 9]: GI-epithelial damage (diarrhea) complicated with marrow toxicity | Day of Nadir [2, 9]: 9 days | Day of full recovery of body weight [2, 9]: 14 days | Day tumors reached 1000 mg (range) [2, 9]: 22 (18-23) day | Drug Deaths [2, 9]: 1/5 | Growth Delay [2, 9]: 13 days | Log Kill [2, 9]: 3.3 | Median Tumor Mass on day 9 (Range) [2, 9]: 0 (all zeros) mg | Tumor Free day-23 [2, 9]: 0/5 | % Body Wt Loss at Nadir [2, 10]: −23.4% | % T/C mass [2, 10]: 0% | % Body Wt Loss at Nadir [2, 11]: 0% | Activity Rating [2, 11]: + (0.7-1.2) | Day of Nadir [2, 11]: 9 days | Drug Deaths [2, 11]: 0/1 | Growth Delay [2, 11]: 3 days | Log Kill [2, 11]: 0.8 | Median Tumor Mass on day 9 (Range) [2, 11]: 340 (one mouse) mg | Neuromuscular toxicity [2, 11]: no neuromuscular toxicity | Tumor Free day-23 [2, 11]: 0/1 | % T/C mass ([2]; Cage 8 (one mouse), IV single bolus 124.5 mg/kg day 1, 124.5 mg/kg): 35% | % T/C mass ([2]; Cage 8 (one mouse), IV single bolus 124.5 mg/kg day 1, listed as R-enantiomer of compound 22b, 124.5 mg/kg): 35% | % Body Wt change at nadir [3]: −6.2% | Activity Rating [3]: ++ (1.3-1.9) | CR's [3]: 1/6 | Drug Deaths [3]: 0/6 | Growth Delay [3]: 8 days | Log Kill [3]: 1.4 | Median time for tumors to 700 mg (range) [3]: 21 (15.5-48) days | PR's [3]: 1/6 | Tumor Free day-156 [3]: 0/6 | day of nadir [3]: 16 days
